Experimental data from patent US20150218212A1, “FLUORINATED EPOXYKETONE-BASED TETRAPEPTIDE COMPOUNDS AND USES THEREOF AS PROTEASOME INHIBITORS” (FLUORINOV PHARMA INC., priority 2012, published 2015).

What was measured:
Assay type in all cases: cell-based, human
[1] = system: KM12; test: NCI screening panel, KM12 (Colon Cancer)
Procedure: (§1) Representative compounds of Formula I were screened using the National Cancer Institute (NCI) screening panel, which consists of a panel of human tumor cell lines, representing leukemia, melanoma, and cancers of the lung, colon, ovary, breast, prostate and renal system.
(§2) After 24 h, two plates of each cell line are fixed in situ with TCA, to represent a measurement of the cell population for each cell line at the time of drug addition (Tz). Experimental drugs are solubilised in dimethyl sulfoxide at 400-fold the desired final maximum test concentration and stored frozen prior to use. At the time of drug addition, an aliquot of frozen concentrate is thawed and diluted to twice the desired final maximum test concentration with complete medium containing 50 μg/mL gentamicin. Additional four, 10-fold or ½ log serial dilutions are made to provide a total of five drug concentrations plus control. Aliquots of 100 μl of these different drug dilutions are added to the appropriate microtiter wells already containing 100 μl of medium, resulting in the required final drug concentrations.
(§3) Following drug addition, the plates are incubated for an additional 48 h at 37° C., 5% CO2, 95% air, and 100% relative humidity. For adherent cells, the assay is terminated by the addition of cold TCA (trichloroacetic acid). Cells are fixed in situ by the gentle addition of 50 μl of cold 50% (w/v) TCA (final concentration, 10% TCA) and incubated for 60 minutes at 4° C. The supernatant is discarded, and the plates are washed five times with tap water and air dried. Sulforhodamine B (SRB) solution (100 μl) at 0.4% (w/v) in 1% acetic acid is added to each well, and plates are incubated for 10 minutes at room temperature. After staining, unbound dye is removed by washing five times with 1% acetic acid and the plates are air dried. Bound stain is subsequently solubilised with 10 mM trizma base, and the absorbance is read on an automated plate reader at a wavelength of 515 nm. For suspension cells, the methodology is the same except that the assay is terminated by fixing settled cells at the bottom of the wells by gently adding 50 μl of 80% TCA (final concentration, 16% TCA). Using the seven absorbance measurements [time zero, (Tz), control growth, (C), and test growth in the presence of drug at the five concentration levels (Ti)], the percentage growth is calculated at each of the drug concentrations levels. Percentage growth inhibition is calculated as: [(Ti−Tz)/(C−Tz)]×100 for concentrations for which Ti>/=Tz and [(Ti−Tz)/Tz]×100 for concentrations for which Ti<Tz.
(§4) Three dose response parameters are calculated for each experimental agent. Growth inhibition of 50% (GI50) is calculated from [(Ti−Tz)/(C−Tz)]×100=50, which is the drug concentration resulting in a 50% reduction in the net protein increase (as measured by SRB staining) in control cells during the drug incubation. The drug concentration resulting in total growth inhibition (TGI) is calculated from Ti=Tz. The LC50 (concentration of drug resulting in a 50% reduction in the measured protein at the end of the drug treatment as compared to that at the beginning) indicating a net loss of cells following treatment is calculated from [(Ti−Tz)/Tz]×100=−50. Values are calculated for each of these three parameters if the level of activity is reached. However, if the effect is not reached or is exceeded, the value for that parameter is expressed as greater or less than the maximum or minimum concentration tested.

[2] = system: SW-620; test: NCI screening panel, SW-620 (Colon Cancer)
Procedure: as §1, §2, §3, §4

[3] = system: SNB-75; test: NCI screening panel, SNB-75 (CNS Cancer)
Procedure: as §1, §2, §3, §4

[4] = system: U251; test: NCI screening panel, U251 (CNS Cancer)
Procedure: as §1, §2, §3, §4

[5] = system: UACC-257; test: NCI screening panel, UACC-257 (Melanoma)
Procedure: as §1, §2, §3, §4

[6] = system: NCI/ADR-RES; test: NCI screening panel, NCI/ADR-RES (Ovarian Cancer)
Procedure: as §1, §2, §3, §4

[7] = system: 786-0; test: NCI screening panel, 786-0 (Renal Cancer)
Procedure: as §1, §2, §3, §4

[8] = system: MDA-MB-231/ATCC; test: NCI screening panel, MDA-MB-231/ATCC (Breast Cancer)
Procedure: as §1, §2, §3, §4

[9] = system: T-47D; test: NCI screening panel, T-47D (Breast Cancer)
Procedure: as §1, §2, §3, §4

[10] = system: MDA-MB-468; test: NCI screening panel, MDA-MB-468 (Breast Cancer)
Procedure: as §1, §2, §3, §4

Structure (SMILES)	Log10GI50 [1]	Log10LC50 [1]	Log10TGI50 [1]	Log10GI50 [2]	Log10LC50 [2]	Log10TGI50 [2]	Log10GI50 [3]	Log10LC50 [3]	Log10TGI50 [3]	Log10GI50 [4]	Log10LC50 [4]	Log10TGI50 [4]	Log10GI50 [5]	Log10LC50 [5]	Log10TGI50 [5]	Log10GI50 [6]	Log10LC50 [6]	Log10TGI50 [6]	Log10GI50 [7]	Log10LC50 [7]	also measured
CC(C)C[C@H](NC(=O)[C@H](Cc1ccccc1)NC(=O)[C@H](COC(F)F)NC(=O)[C@H](COC(F)F)NC(=O)CN1CCOCC1)C(=O)[C@@]1(C)CO1 [Example 11, (2S)-2-[[(2S)-3-(difluoromethoxy)-2-[[(2S)-3-(difluoromethoxy)-2-[(2-morpholinoacetyl)-amino]propanoyl]amino]propanoyl]amino]-N-[(1S)-3-methyl-1-[(2R)-2-methyloxirane-2-carbonyl]butyl]-3-phenyl-propanamide]	−7.73	−7.07	−7.40	−7.63	>−4.00	−5.97	−7.62	>−4.00	−7.15	−7.59	−4.04	−6.71	−6.79	>−4.00	−6.14	−5.16	>−4.00	>−4.00	−6.66	>−4.00	Log10TGI50 [7]: −5.63; Log10GI50 [8]: −7.56; Log10LC50 [8]: −4.39; Log10TGI50 [8]: −6.94; Log10GI50 [9]: −7.71; Log10TGI50 [9]: >−4.00; Log10GI50 [10]: −7.62; Log10LC50 [10]: −4.67; Log10TGI50 [10]: −7.06
CC(C)C[C@H](NC(=O)[C@H](COC(F)F)NC(=O)[C@H](COC(F)F)NC(=O)[C@H](COC(F)F)NC(=O)CN1CCOCC1)C(=O)[C@@]1(C)CO1 [Example 17, (2S)-3-(difluoromethoxy)-N-[(1S)-1-(difluoromethoxymethyl)-2-[[(1S)-1-(difluoro-methoxymethyl)-2-[[(1S)-3-methyl-1-[(2R)-2-methyloxirane-2-carbonyl]butyl]amino]-2-oxo-ethyl]amino]-2-oxo-ethyl]-2-[(2-mor-pholinoacetyl)amino]-propanamide]	−7.34	−6.24	−6.73	−7.08	>−4.00	−4.95	−7.15	>−4.00	−6.39	−7.26	−5.25	−6.32	−6.45	>−4.00	−5.56	−4.50	>−4.00	>−4.00	−5.99	>−4.00	Log10TGI50 [7]: −4.92; Log10GI50 [8]: −6.87; Log10LC50 [8]: −4.25; Log10TGI50 [8]: −6.10; Log10GI50 [9]: −7.10; Log10LC50 [9]: >−4.00; Log10TGI50 [9]: −6.33; Log10GI50 [10]: −7.04; Log10LC50 [10]: >−4.00; Log10TGI50 [10]: −6.17
